Molecules are shown by their SMILES. Entries after “also recorded” stand apart in the source; their conditions may differ.

For test [1], the system named is activated rat hepatic stellate cells. The conditions noted are these: 5-10 μM. How it is done:
The isolation of the rat hepatic stellate cells: The liver of an adult male Sprague-Dawley rats (500-600 g) were excised out after perfusion with pronase and collagenase. The liver tissue was homogenized and centrifuged. […] The cells were cultured in DMEM (Dulbecco Meliorated Eagle Medium) with 20% FBS inside culture plates at a cell density of 1.5×10^5 cells/cm^2. After two days incubation, the culture medium was changed and the cell debris was washed and removed.
The culture condition of rat hepatic stellate cells: The rat hepatic stellate cells were cultured in DMEM containing 20% fetal bovine serum (FBS), penicillin (100 U/ml) and streptomycin (100 ug/ml) at 37° C. in 5% CO2. The culture medium was changed for every fourth day.
The inhibitory effect of 2-(4-morpholinoaniline)-6-cyclohexyl aminopurine on activated rat hepatic stellate cells: The cells were treated with 5-10 μM of 2-(4-morpholinoaniline)-6-cyclohexyl aminopurine for 24 hours. The treated cells were then collected for Microarrays analysis. The treated cells were also processed for immunofluorescence staining and RT-PCR quantification.
The western blot analysis: The cells are disrupted in 200 μl lysis buffer (50 mM NaCl, 20 mM Tris (trihydroxymethyl aminomethane) pH 7.6, 1% Nonidet P-40, 1× protease inhibitor compounds) for 1 hour at 4° C. After incubation, the lysate was centrifuged at 16,000×g for 10 mins. The supernatant was transferred to a new tube and a protein quantification kit was used to quantify the concentration of proteins in each samples. 25 μg of total protein from each sample was loaded into the 10% SDS PAGE gel for analysis. Collagen-I, MMP-2, MMP-3, TIMP-2 and TIMP-3 mouse monoclonal antibodies (Santa Cruz Lab) were used to analyze the samples. Beta-actin and beta-tubulin monoclonal antibodies (1:1000 diluted) were used as internal control and normalization.

The subject of test [2] is CCl4-induced liver fibrosis. The settings on record: Sprague-Dawley rats, CCl4 i.p. 6 weeks, then 50 or 100 μg/kg i.p. twice a week for two or four weeks.
Experimental: Twenty-four adult male Sprague-Dawley rats (500-600 g) were divided into 4 groups (n=6), the first group (control) was injected with carbon tetrachloride (CCl4) intraperitonally (i.p.) twice per week for 6 weeks to induce liver fibrosis. […] At the end of the experimentation, the different groups of rats were sacrificed and samples of the liver were collected and fixed in 4% buffered formalin for 24 hours. Paraffin embedded samples were sectioned for histology and immunohistochemistry. Liver samples were also collected and stored in −20° C. for Western Blot Analysis and RT-PCR quantification.

As for `c1nc2c(NC3CCCCC3)nc(Nc3ccc(N4CCOCC4)cc3)nc2[nH]1` [2-(4-morpholinoaniline)-6-cyclohexyl aminopurine], the “Expression and synthesis of matrix metalloproteinases-2 (MMP-2) by activated hepatic stellate cells” value in test [1] (treatment for 3 days (FIG. 3B)) is “inhibited them from expressing and synthesizing and MMP-2; also recorded: suppressed activated hepatic stellate cells from expressing and synthesizing MMP-2 and MMP-3”. Further, the “Expression and synthesis of matrix metalloproteinases-3 (MMP-3) by activated hepatic stellate cells” value in test [1] (treatment for 3 days (FIG. 3D)) is “inhibited them from expressing and synthesizing MMP-3; also recorded: suppressed activated hepatic stellate cells from expressing and synthesizing MMP-2 and MMP-3”. Also, the “Expression and synthesis of tissue inhibitor of metalloproteinase-2 (TIMP-2) by activated hepatic stellate cells” value in test [1] (treatment for 3 days (FIG. 4B)) was “could inhibit activated hepatic stellate cells from expressing and synthesizing TIMP-2; also recorded: could inhibit the cells from producing TIMP-2 and TIMP-3”. Moreover, the “Expression and synthesis of TIMP-3 by activated hepatic stellate cells” value in test [1] (treatment for 3 days (FIG. 4D)) was “inhibited them from expressing and synthesizing TIMP-3; also recorded: could inhibit the cells from producing TIMP-2 and TIMP-3”. In test [2], the “Collagen synthesis in liver (histology, FIG. 5)” value is “effective in inhibiting collagen synthesis”.

For the origin of these results see US9023385B2, “Pharmaceutical use of 2-(4-morpholinoaniline)-6-cyclohexyl aminopurine and/or salt thereof for improving liver functioning” (Zhangzhou Pien Tze Huang Pharmaceutical Co., Ltd., priority 2011, dated 2015).
